Experimental data from ChEMBL document CHEMBL2157956, “Antibacterial activity of substituted dibenzo[a,g]quinolizin-7-ium derivatives” (2012).
Converted amounts (≈) assume the structure as drawn. The source made the active and inactive calls. No cut-off for these calls is given here.

Legend:
Staphylococcus aureus [1] = test: Antibacterial activity against methicillin-sensitive Staphylococcus aureus 8325-4 by CLSI broth microdilution method; type: functional
Enterococcus faecalis [2] = test: Antibacterial activity against vancomycin-sensitive Enterococcus faecalis ATCC 19433 by CLSI broth microdilution method; type: functional
Staphylococcus aureus [3] = test: Antibacterial activity against methicillin-resistant Staphylococcus aureus ATCC 33591 by CLSI broth microdilution method; type: functional
Enterococcus faecalis [4] = test: Antibacterial activity against vancomycin-resistant Enterococcus faecalis ATCC 51575 by CLSI broth microdilution method; type: functional
[5] = molecular target: T1, Cell division protein FtsZ (Staphylococcus aureus) (UniProt P0A031); test: Induction of Staphylococcus aureus FtsZ self-polymerization assessed as increase in light scattering at 20 ug/mL by 90 deg angle light scattering assay; details: TDE = time-dependent effect
T1 sequence (whole entry): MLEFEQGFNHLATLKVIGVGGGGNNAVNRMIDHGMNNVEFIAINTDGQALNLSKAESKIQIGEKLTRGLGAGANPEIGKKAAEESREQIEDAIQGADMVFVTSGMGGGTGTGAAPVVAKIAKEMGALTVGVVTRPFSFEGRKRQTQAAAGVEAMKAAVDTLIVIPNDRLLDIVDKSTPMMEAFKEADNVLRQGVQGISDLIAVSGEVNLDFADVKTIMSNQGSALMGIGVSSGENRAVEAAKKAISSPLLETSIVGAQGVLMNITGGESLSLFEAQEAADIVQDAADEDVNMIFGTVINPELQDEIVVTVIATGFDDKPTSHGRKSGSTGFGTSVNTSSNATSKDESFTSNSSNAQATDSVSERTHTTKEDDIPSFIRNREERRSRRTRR

[6] = molecular target: T1, Cell division protein FtsZ (Staphylococcus aureus); test: Induction of Staphylococcus aureus FtsZ self-polymerization assessed as increase in light scattering at 10 ug/mL by 90 deg angle light scattering assay; details: TDE = time-dependent effect
[7] = molecular target: T1, Cell division protein FtsZ (Staphylococcus aureus); test: Induction of Staphylococcus aureus FtsZ self-polymerization assessed as increase in light scattering at 20 ug/mL measured every 5 secs by 90 deg angle light scattering assay
[8] = molecular target: T1, Cell division protein FtsZ (Staphylococcus aureus); test: Inhibition of Staphylococcus aureus FtsZ self-polymerization assessed as decrease in light scattering at 20 ug/mL by 90 deg angle light scattering assay; details: TDE = time-dependent effect

SMILES | MIC (Staphylococcus aureus [1]) [µg/mL] | MIC (Enterococcus faecalis [2]) [µg/mL] | MIC (Staphylococcus aureus [3]) [µg/mL] | MIC (Enterococcus faecalis [4]) [µg/mL] | Activity [5] | Activity [6] | Activity [7] | inhibition [8]
CC(=O)OS(=O)(=O)[O-].COc1cc2cc3c4cc(-c5cccc6ccccc56)c(OC)c(OC)c4cc[n+]3c(C)c2cc1OC | 1 | 4 | 2 | 8 |  |  |  | 
CC(C)C(=O)OS(=O)(=O)[O-].COc1cc2cc3c4cc(-c5ccc(-c6ccccc6)cc5)c(OC)c(OC)c4cc[n+]3c(C(C)C)c2cc1OC | 0.5 | 2 | 0.5 | 2 | tde | tde |  | 
CN[C@H](CC(C)C)C(=O)N[C@H]1C(=O)N[C@@H](CC(N)=O)C(=O)N[C@H]2C(=O)N[C@H]3C(=O)N[C@H](C(=O)N[C@H](C(=O)O)c4cc(O)cc(O)c4-c4cc3ccc4O)[C@H](O)c3ccc(c(Cl)c3)Oc3cc2cc(c3O[C@@H]2O[C@H](CO)[C@@H](O)[C@H](O)[C@H]2O[C@H]2C[C@](C)(N)[C@H](O)[C@H](C)O2)Oc2ccc(cc2Cl)[C@H]1O [VANCOMYCIN] |  | 1 (≈ 0.69 µM) |  | > 64 |  |  |  | 
COc1cc2cc3c4cc(-c5ccc(-c6ccccc6)cc5)c(OC)c(OC)c4cc[n+]3cc2cc1OC.[Cl-] | 2 | 8 | 2 | 4 |  |  |  | 
CCC[C@@H]1C[C@@H](C(=O)N[C@@H]([C@H]2O[C@H](SC)[C@H](O)[C@@H](O)[C@H]2O)[C@H](C)Cl)N(C)C1 [CLINDAMYCIN] | 0.03 (≈ 0.0706 µM) | 2 (≈ 4.71 µM) | > 64 | > 64 |  |  |  | 
CC(=O)OS(=O)(=O)[O-].COc1cc2c(C)[n+]3ccc4c(OC)c(OC)ccc4c3cc2c(-c2ccc(-c3ccccc3)cc2)c1OC | 1 | 16 | 4 | 16 |  |  |  | 
CC(=O)OS(=O)(=O)[O-].COc1cc2cc3c4cc(-c5ccc(-c6ccccc6)cc5)c(OC)c(OC)c4cc[n+]3c(C)c2cc1OC | 1 | 4 | 2 | 8 |  |  |  | 
COc1cc2cc3c4cc(-c5ccccc5)c(OC)c(OC)c4cc[n+]3cc2cc1OC.[Cl-] | 4 | 16 | 8 | 32 |  |  |  | 
CC(=O)OS(=O)(=O)[O-].COc1cc2cc3c4cc(-c5ccccc5)c(OC)cc4cc[n+]3c(C)c2cc1OC | 8 | > 64 | > 64 | > 64 |  |  |  | 
COc1cc2cc[n+]3cc4cc(OC)c(OC)c(-c5ccc(-c6ccccc6)cc5)c4cc3c2cc1OC.[Cl-] | 2 | 8 | 4 | 32 |  |  |  | 
COc1cc2cc3c4cc(-c5ccc(C)cc5)c(OC)cc4cc[n+]3cc2cc1OC.[Cl-] | 2 | 16 | 8 | > 64 |  |  |  | 
COc1cc2c[n+]3ccc4c(OC)c(OC)ccc4c3cc2c(-c2ccc(-c3ccccc3)cc2)c1OC.[Cl-] | 2 | 8 | 8 | 16 |  |  |  | 
COc1cc2cc3c4cc(-c5cccc6ccccc56)c(OC)c(OC)c4cc[n+]3cc2cc1OC.[Cl-] | 4 | 8 | 2 | 8 |  |  |  | 
COc1cc2cc3c4cc(-c5ccc(C(C)(C)C)cc5)c(OC)c(OC)c4cc[n+]3cc2cc1OC.[Cl-] | 4 | 4 | 4 | 8 |  |  |  | 
CN(C)[C@@H]1C(O)=C(C(N)=O)C(=O)[C@@]2(O)C(O)=C3C(=O)c4c(O)cccc4[C@@](C)(O)[C@H]3C[C@@H]12 [TETRACYCLINE] | 0.06 (≈ 0.135 µM) | 0.5 (≈ 1.13 µM) | 64 (≈ 144 µM) | > 64 |  |  |  | 
COc1ccc2cc3[n+](cc2c1OC)CCc1cc2c(cc1-3)OCO2 [BERBERINE] | > 64 | > 64 | > 64 | > 64 |  |  |  | 
CC[C@H]1OC(=O)[C@H](C)[C@@H](O[C@H]2C[C@@](C)(OC)[C@@H](O)[C@H](C)O2)[C@H](C)[C@@H](O[C@@H]2O[C@H](C)C[C@H](N(C)C)[C@H]2O)[C@](C)(O)C[C@@H](C)C(=O)[C@H](C)[C@@H](O)[C@]1(C)O [ERYTHROMYCIN] | 0.13 (≈ 0.177 µM) | 1 (≈ 1.36 µM) | > 64 | > 64 |  |  |  | 
Cc1onc(-c2ccccc2)c1C(=O)N[C@@H]1C(=O)N2[C@@H]1SC(C)(C)[C@@H]2C(=O)O [OXACILLIN] | 0.06 (≈ 0.149 µM) | 8 (≈ 19.9 µM) | > 64 | > 64 |  |  | inactive | 
CC(=O)OS(=O)(=O)[O-].COc1cc2cc3c4cc(-c5ccc(C)cc5)c(OC)cc4cc[n+]3c(C)c2cc1OC | 4 | 8 | 8 | > 64 |  |  |  | 
CC(=O)OS(=O)(=O)[O-].COc1cc2cc[n+]3c(C)c4cc(OC)c(OC)c(-c5ccc(-c6ccccc6)cc5)c4cc3c2cc1OC | 1 | 4 | 4 | 32 | tde |  |  | tde
CC(=O)OS(=O)(=O)[O-].COc1cc2cc3c4cc(-c5ccc(C(C)(C)C)cc5)c(OC)c(OC)c4cc[n+]3c(C)c2cc1OC | 1 | 4 | 2 | 4 |  |  |  | 
CC(=O)OS(=O)(=O)[O-].COc1cc2cc3c4cc(-c5ccccc5)c(OC)c(OC)c4cc[n+]3c(C)c2cc1OC | 2 | 8 | 8 | 16 |  |  |  | 
COc1cc2cc3c4cc(-c5ccccc5)c(OC)cc4cc[n+]3cc2cc1OC.[Cl-] | 8 | 32 | 32 | 64 |  |  |  | 
